From US10807948B2, “Aromatic compounds and uses thereof” (PELOTON THERAPEUTICS, INC., priority 2015, dated 2020)
Entries after “also recorded” stand apart in the source; their conditions may differ.

Columns and labels:
[1] = molecular target: T1, HIF-2α HIS TAG-PASB Domain (Homo sapiens, UniProt Q99814); assay: HIF-2α Scintillation Proximity Assay (SPA); type: binding; details: displacement of tritiated probe from HIF-2α PASB domain
T1 construct: 100 nM HIF-2α HIS TAG-PASB Domain
Method: The total assay volume was about 100 μL in the following configuration: 2 μL compound in 100% DMSO, 88 μL buffer with protein and probe and 10 μL of SPA beads. […] The percent inhibition was determined and IC50 values were calculated using the Dotmatics system based on the following equation: % inhibition=[(high control−sample)/(high control−low control)]×100.

786-O-Hif-Luc cells = assay: Luciferase Assay; type: cell-based; details: about 24 hours
Method: 786-O-Hif-Luc single clone cells were obtained by infecting 786-O cells (ATCC® CRL-1932™) with commercial lentivirus that delivers a luciferase gene driven by multiple HIF responsive elements (Cignal Lenti HIF Reporter (luc): CLS-007L, Qiagen) at Multiplicity of Infection (MOI) of 25 for 24 hours. […] A pool of infected cells were then selected against 2 μg/mL of puromycin (P8833, Sigma) for 10 days followed by limited dilution to select single clones. […] For the luciferase assay, about 7500 786-O-Hif-Luc cells in 90 μL growth medium were seeded into each well of a 96-well white opaque plate (08-771-26, Fisher scientific) a day before treatment with the layout presented in FIG. 5.
Each concentration was tested in triplicate. After about 24 hours, luciferase activity was determined using ONE-Glo Luciferase Assay Reagent (E6110, Promega) following the manufacturer's recommended procedure. EC50 were calculated using Dotmatics software.

786-O cells = assay: VEGF ELISA Assay; type: cell-based; details: Homo sapiens, 786-0, VEGF concentration in cell culture medium
Method: About 7500 786-0 cells in 180 μL of growth medium were seeded into each well of a 96-well, white, clear bottom plate (07-200-566, Fisher Scientific) on day one in the layout presented in FIG. 3.
Each concentration was plated in duplicate. About 20 hours later, medium was removed by suction and each well was supplied with 180 μL of growth medium. About 20 μL freshly-made 10× compound stocks were added to each well. […] The EC50 was calculated by GraphPad Prism using the dose-response-inhibition (four parameter) equation. The cell-seeded plate was then subjected to CellTiter-Glo luminescence cell viability assay (Promega) by adding 50 μL of Celltiter Glo reagent into each well and shaking the plate for 8 minutes at 550 rpm (Thermomixer R, Eppendorf) then the luminescence signal immediately read in a plate reader (3 second delay, 0.5 second/well integration time, Synergy 2 multi Detection Microplate reader).

[2] = test system: renal cell carcinoma 786-O xenograft; assay: In vivo PK/PD study: mRNA levels of genes in tumor by qRT-PCR; parameters: species or system SCID/Biege mice; details: 3 mg/kg oral gavage, six times at 12 hour intervals; 12 hours post last dose
Method: (§1) About 5×10^6 renal cell carcinoma 786-O tumor cells (ATCC® CRL-1932™, VHL and HIF-1α null cell line) in PBS and Matrigel (1:1 in volume) were injected subcutaneously at the right flanks of SCID/Biege mice at 6-7 weeks of age for xenograft development. When the xenografts reached about 400 mm^3 in size, the tumor bearing mice were randomly divided into 2 groups (n=3). Plasma was collected prior to treatment by retro-orbital bleeding. The animals were treated with either vehicle or Compound 95 at 3 mg/kg by oral gavage (six times at 12 hour intervals). All animals were sacrificed at 12 hours post last dose. Tumor, kidney, and plasma samples were collected from each animal. Total RNA was extracted from the tumors and kidneys. The mRNA levels of several genes were determined by qRT-PCR (FIG. 1).
Total RNA was extracted from the tumors, and the expressions of putative HIF-1α and HIF-2α regulated genes were determined by qRT-PCR.

[3] = test system: renal cell carcinoma 786-O xenograft; assay: In vivo PK/PD study: human VEGFA in plasma by ELISA; parameters: species or system SCID/Biege mice; details: 3 mg/kg oral gavage, six times at 12 hour intervals
Method: as §1
The level of human VEGFA was determined by ELISA assay.

[4] = test system: renal cell carcinoma 786-O xenograft; assay: In vivo efficacy study, 786-O xenograft; parameters: species or system SCID/Biege mouse; details: for Tumor size (mm^3) Mean ± SEM: after 28 days of dosing

T1 sequence (Q99814 239-348): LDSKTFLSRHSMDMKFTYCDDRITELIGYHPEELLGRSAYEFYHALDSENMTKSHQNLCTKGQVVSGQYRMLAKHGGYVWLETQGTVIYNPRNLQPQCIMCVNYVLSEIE

CS(=O)(=O)c1ccc(OC2CC(F)(F)C2)c2c1[C@H](O)[C@H](F)[C@@H]2F (racemic) [Compound 98, (racemic)-4-(3,3-difluorocyclobutoxy)-2,3-difluoro-7-(methylsulfonyl)-2,3-dihydro-1H-inden-1-ol]
IC50 [1]: < 50 nM

COC[C@@H](C)Oc1ccc(S(=O)(=O)C(F)(F)F)c2c1CC(F)(F)[C@H]2O [Compound 184]
EC50 (786-O-Hif-Luc cells): < 50 nM

O=S(=O)(CF)c1ccc(OC2CC(F)(F)C2)c2c1[C@H](O)C(F)(F)[C@@H]2F [Compound 97, (1S,3R)-4-(3,3-difluorocyclobutoxy)-2,2,3-trifluoro-7-((fluoromethyl)sulfonyl)-2,3-dihydro-1H-inden-1-ol]
EC50 (786-O cells): < 50 nM

N#Cc1cncc(-c2ccc(S(=O)(=O)C(F)(F)F)c3c2CC(F)(F)C3O)c1 (stereo not drawn) [Compound 91]
IC50 [1]: > 1000 nM
EC50 (786-O-Hif-Luc cells): > 1000 nM

CO[C@H]1C[C@H](Oc2ccc(S(=O)(=O)C(F)(F)F)c3c2CC(F)(F)[C@H]3O)C1 [Compound 239]
IC50 [1]: < 50 nM

FC(F)COc1ccc(C(F)(F)F)c2c1CC(F)(F)C2F (stereo not drawn) [Compound 214]
IC50 [1]: > 1000 nM

O=S(=O)(CF)c1ccc(OC2CC(F)(F)C2)c2c1[C@H](O)[C@H](F)[C@@H]2F (racemic) [Compound 99, (racemic)-4-(3,3-difluorocyclobutoxy)-2,3-difluoro-7-((fluoromethyl)sulfonyl)-2,3-dihydro-1H-inden-1-ol]
IC50 [1]: < 50 nM

CCOc1ccc(S(=O)(=O)C(F)(F)F)c2c1CC(F)(F)C2O (stereo not drawn) [Compound 113]
IC50 [1]: 50 to 249 nM

OC1c2c(C(F)(F)F)ccc(OCC(F)F)c2CC1F (stereo not drawn) [Compound 221]
IC50 [1]: 50 to 249 nM
EC50 (786-O-Hif-Luc cells): 50 to 249 nM

CC1CC(Oc2ccc(S(=O)(=O)C(F)(F)F)c3c2CC(F)(F)C3O)CCO1 (stereo not drawn) [Compound 148]
EC50 (786-O-Hif-Luc cells): < 50 nM

O=S(=O)(c1ccc(OCC2(F)COC2)c2c1[C@H](O)C(F)(F)C2)C(F)(F)F [Compound 94, (S)-2,2-difluoro-4-((3-fluorooxetan-3-yl)methoxy)-7-((trifluoromethyl)sulfonyl)-2,3-dihydro-1H-inden-1-ol]
EC50 (786-O-Hif-Luc cells): < 50 nM

N#CC1(COc2ccc(S(=O)(=O)C(F)(F)F)c3c2CC(F)(F)C3O)CC1 (stereo not drawn) [Compound 142]
IC50 [1]: < 50 nM

CS(=O)(=O)c1ccc(OC2CC(F)(F)C2)c2c1[C@H](O)C(F)(F)[C@@H]2F [Compound 95, (1S,3R)-4-(3,3-difluorocyclobutoxy)-2,2,3-trifluoro-7-(methylsulfonyl)-2,3-dihydro-1H-inden-1-ol]
CCND1 mRNA level in tumor [2]: significant reduction; also recorded: reduced
GLUT1 mRNA level in tumor [2]: significant reduction; also recorded: reduced
PAI-1 mRNA level in tumor [2]: significant reduction; also recorded: reduced
PGK1 mRNA level in tumor (HIF-1α specific target gene) [2]: no significant change; also recorded: no significant effect
VEGFA mRNA level in tumor [2]: significant reduction; also recorded: reduced
human VEGFA plasma level [3]: significant reduction; also recorded: reduced
Tumor size (mm^3) Mean ± SEM ([4]; 1 mg/kg QD): 525.72 mm^3
Tumor size (mm^3) Mean ± SEM ([4]; 3 mg/kg QD): 154.52 mm^3
Tumor size (mm^3) Mean ± SEM ([4]; 10 mg/kg QD): 89.45 mm^3
effect on tumor growth / tumor sizes ([4]; 1, 3 and 10 mg/kg QD for 28 days, single agent): statistically significant reduction of tumor sizes for all treatment groups; also recorded: tumor growth inhibition and regression

O[C@H]1c2c(C(F)(F)F)ccc(OC3CC(F)(F)C3)c2CC1(F)F [Compound 109]
EC50 (786-O cells): < 50 nM
EC50 (786-O-Hif-Luc cells): < 50 nM

CS(=O)(=O)c1ccc(OCC2CC(F)(F)C2)c2c1[C@H](O)C(F)(F)[C@@H]2F [Compound 287]
IC50 [1]: < 50 nM

CS(=O)(=O)c1ccc(OC2CCC2)c2c1[C@H](O)C(F)(F)[C@@H]2F [Compound 281]
EC50 (786-O-Hif-Luc cells): 50 to 249 nM

OC1c2c(OCC(F)F)ccc(C(F)(F)F)c2C(F)C1(F)F (stereo not drawn) [Compound 215]
IC50 [1]: > 1000 nM

CS(=O)(=O)c1ccc(O[C@H]2C[C@H](F)C2)c2c1[C@H](O)C(F)(F)[C@@H]2F [Compound 261]
EC50 (786-O-Hif-Luc cells): < 50 nM
